For assay [1], the target named is T1, C5a anaphylatoxin chemotactic receptor 1 (Homo sapiens, UniProt P21730).
T1 sequence (P21730 whole entry): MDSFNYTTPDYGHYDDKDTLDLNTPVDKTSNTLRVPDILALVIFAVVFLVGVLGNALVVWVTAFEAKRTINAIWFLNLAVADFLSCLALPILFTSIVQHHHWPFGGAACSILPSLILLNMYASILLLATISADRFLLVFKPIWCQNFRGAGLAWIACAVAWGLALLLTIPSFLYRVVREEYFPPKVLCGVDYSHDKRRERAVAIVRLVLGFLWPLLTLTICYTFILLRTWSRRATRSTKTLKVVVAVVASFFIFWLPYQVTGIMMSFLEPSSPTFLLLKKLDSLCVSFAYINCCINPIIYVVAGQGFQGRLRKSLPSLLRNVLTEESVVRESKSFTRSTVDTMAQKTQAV
The assay can be described thus: Inhibitory activity against purified binding C5a anaphylatoxin chemotactic receptor.

Assay [2] has as its target T1, C5a anaphylatoxin chemotactic receptor 1. Nature of the assay: Inhibitory activity for C5a anaphylatoxin chemotactic receptor binding using radiolabeled C5a receptor on neutrophil membranes (~2.0 uM).
The target is the same in assay [3]. Nature of the assay: Inhibitory activity against radiolabeled C5a receptor on neutrophil membranes expressing C5a anaphylatoxin chemotactic receptor.
For assay [4], the target named is T2, C5a anaphylatoxin chemotactic receptor 1 (Homo sapiens) (UniProt P21730).
T2 sequence (whole entry): T1 sequence (P21730 whole entry)
Nature of the assay: Compound was evaluated for inhibition of radiolabeled C5a binding to its membrane C5a anaphylatoxin chemotactic receptor.

The target in assay [5] is T2, C5a anaphylatoxin chemotactic receptor 1 (Homo sapiens). Nature of the assay: Nonspecific degranulation of polymorho neutrophils as measured by myeloperoxidase (MPO) release in a whole functional cell assay.
The species named for assay [6] is Homo sapiens. Nature of the assay: Degranulation of polymorho neutrophils as measured by myeloperoxidase (MPO) release in a whole functional cell assay.

SMILES strings stand for the structures. Converted amounts (≈) assume the structure as drawn.

Regarding `CC[C@H](C)C[C@H]1CC[C@](O)([C@](C)(O)C(=O)N[C@@H]2C(=O)N3NCCC[C@@H]3C(=O)N(O)[C@@H](C)C(=O)NCC(=O)N3NCCC[C@H]3C(=O)N(O)[C@H](C)C(=O)O[C@H]2C(C)C)O[C@@H]1C`, the IC50 is 5.95 µM in assay [1], 2.02 µM in assay [2] and 5.95 µM in assay [3]. Further, the Activity in assay [4] is 1.8 µg/mL. The Concentration causing nonspecific degranulation (MPO release) in assay [5] came out at 0.27 µg/mL. Further, the midpoint of the response in assay [6], the EC50, lay at 0.28 µg/mL (≈ 0.333 µM).

The term IC50 denotes the point on the concentration scale where inhibition reaches its midpoint. For orientation: EC50 means the concentration that produces a half-maximal response.
